The results in this text go back to US20040204474A1, “Carvedilol-lipophilic solutions” (priority 2000, published 2004).

A short description of data set [1]: solubility of carvedilol in aqueous media. Format: physicochemical. The conditions noted are these: about pH 1-2.
Data set [2] is described as follows: solubility of carvedilol in adjuvants and solvents with lipophilic character. Format: physicochemical. The conditions noted are these: for solubility: oil or lipid.
The nature of data set [3]: gastrointestinal resorption after peroral administration. The conditions noted are these: rapid release formulations, e.g. the commercial formulation. Type of data set: in vivo.

Each structure is given as a SMILES string. Read-outs that look alike come from different tables or passages of the source. Bounds are passed on as bounds.

As to `COc1ccccc1OCCNCC(O)COc1cccc2[nH]c3ccccc3c12` (centres unmarked) [carvedilol, 1-(4-carbazolyloxy)-3-[2-(2-methoxyphenoxy)ethyl-amino]-2-propanol], the “solubility in aqueous media, strongly acidic region” value in data set [1] is reported as “very low solubility”. The “solubility in pronounced lipophilic solvents (paraffin, petroleum ether)” value in data set [2] is “very low”. Besides, in data set [2] (at 37° C.), the “solubility in benzyl alcohol” value is listed as > 100 mg of carvedilol per ml. For the same compound, the solubility in data set [2] (capric acid, 37 °C, at 37° C., read-out: solubility in capric acid) is > 100 mg/mL; in data set [2] (in many cases, read-out: solubility in glycerol oleyloleate, medium chain triglycerides and natural oils) it was < 10 mg/mL; in data set [2] (all named solvents, read-out: solubility in glycerol oleyloleate, medium chain triglycerides and natural oils (cod liver, soya bean, sesame, peanut, olive, cottonseed oil)) it was < 50 mg/mL; in data set [2] (oleic acid, 37 °C, at 37° C., read-out: solubility in oleic acid), > 100 mg/mL. In addition, the resorption quota entry in data set [3] is “up to 80%”.
